Results published in patent publication US11361527B2, “Automated robotic microscopy systems” (The J. David Gladstone Institutes, a testamentary trust …, priority 2012, dated 2022).

System: primary neurons transfected with TDP43 M337V
Experiment: Automated neurite quantification in primary neurons transfected with TDP43 M337V (ALS disease model), robotic microscope
Type: cell-based
Details: fluphenazine 0.1 μM vs vehicle, images every 24 hours, FIG. 24
Description: Primary neurons were transfected with GFP as a control or TDP43 M337V. The disease model neurons were treated with fluphenazine (0.1 μM) or vehicle to determine whether autophagy could rescue TDP43 M337V mediated loss of neurites. Images were collected every 24 hours with the robotic microscope and neurites were quantified using automated analysis as described herein.
Further, counting the number of neurites in neuronal cultures can be an early and sensitive measure of cell health. Neurite retraction often precedes neuron death when cells are coping with neurodegenerative disease causing proteins. One way to detect neurites with low computational complexity is to quantify the total area of neurites in an image. A line detector may be used to identify pixels in an image that have local structures that represent a line. The determination is based on the second order pixel data (Hessian matrix), which is a measure of local intensity curvature. In certain aspects, such an approach uses the following parameters:
The output of the line detector is a binary image with pixels that are part of lines having a value of 1 and all other pixels having a value of 0. The pixels of this binary image are then summed to quantify the total area of neurites. […] Images were collected every 24 hours with the robotic microscope and neurites were quantified using automated analysis as described above.

Structure (SMILES): OCCN1CCN(CCCN2c3ccccc3Sc3ccc(C(F)(F)F)cc32)CC1 [fluphenazine]
- neurite degeneration induced by TDP43 M337V (loss of neurites, automated neurite quantification): mitigates neurite degeneration
